According to patent US11963960B2 (Flash Therapeutics, LLC, priority 2020, dated 2024):
pIC50: −log10 of the molar value. Entries after “also recorded” stand apart in the source; their conditions may differ. Like-named read-outs stand apart in the source and are kept apart here.

What was measured:
[1] = target: N-terminally GST-tagged HCK (75-526) (Homo sapiens (Human), UniProt P08631); assay: HCK Kinase Assay (ProFluor Src-Family Kinase Assay); format: biochemical
Outline: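 ProFluor Src-family format: after the kinase reaction, protease solution was added for 60 min at room temperature (22-25° C), then stabilizer.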

[2] = Assessment of In Vitro Metabolic Stability in dog liver microsomes; format: in vitro ADME; settings: for t1/2 in dog LM compared with the compound of example 1: comparison in words; for half-life at 1 μM: dog liver microsomes 0.5 mg/mL, 1 μM compound, NADPH, 37° C., read-out: Dog LM t1/2
Method: Assessment of In Vitro Metabolic Stability
Dog liver microsomes (0.5 mg/mL) were purchased from Corning. Stock solutions were prepared at 10 mM in DMSO for the test compound. Aliquots of the stock solutions were diluted to 0.5 mM with acetonitrile, and then further diluted upon the addition of liver microsomes/buffer to 1.5 μM. An aliquot of 30 μL of 1.5 μM solutions was mixed with 15 μL of 6 mM NADPH and the final concentration of NADPH was 2 mM, which had been pre-warmed to 37° C. Test compound and Ketanserin final concentrations were 1 μM. The plates were kept in a 37° C. water bath for the duration of the experiment. At each time point (0, 5, 15, 30, 45 minutes), 135 μL of acetonitrile was added into corresponding wells. After the final time point was quenched by acetonitrile, the assay plates were shaken (IKA, MTS 2/4) for 10 min (600 rpm/min) and then centrifuged at 5,594 g for 15 min (Thermo Multifuge×3R). Aliquots of the supernatant were taken, diluted 1:1 into distilled water, and analyzed by LC-MS/MS. The peak area response ratio to internal standard (PARR) of the compounds at 5, 15, 30, 45 minutes was compared to the PARR at time 0 to determine the percent of test compound remaining at each time point. Half-lives were calculated using Excel software, fitting to a single-phase exponential decay equation.

[3] = Assessment of In Vivo Pharmacokinetics in Beagle dog; settings: for Dog BAV: male Beagle dog, iv or po at 1 mg/kg or 3 mg/kg; for bioavailability in vivo / plasma clearance in vivo: dog, comparison in words
Method: Assessment of In Vivo Pharmacokinetics
A total of 6 Male Non-naïve Beagle dog, weighing approximately 8.00-10.00 kg (Beijing Marshall Biotechnology Co. LTD), were dosed by intravenous injection (iv) or oral gavage (po) at 1 mg/kg or 3 mg/kg. The vehicles of IV and PO are 100% saline and 100% (0.5% MC in water), respectively. The IV dose was conducted via cephalic vein injection, PO via gavage administration. The animals were restrained manually, and approximately 0.5 mL blood/time point was collected from cephalic vein into pre-cooled K2EDTA tubes. Blood sample was put on wet ice and centrifuged at 4° C. (2000 g, 5 min) to obtain plasma within 15 minutes of sample collection. Plasma samples were analyzed by UPLC/MS-MS. PK parameters were estimated by non-compartmental model using WinNonlin6.4.

[4] = HCK inhibitory activity, 50 μM ATP, read-out: HCK Activity

N-terminally GST-tagged HCK (75-526), sequence (P08631 75-526): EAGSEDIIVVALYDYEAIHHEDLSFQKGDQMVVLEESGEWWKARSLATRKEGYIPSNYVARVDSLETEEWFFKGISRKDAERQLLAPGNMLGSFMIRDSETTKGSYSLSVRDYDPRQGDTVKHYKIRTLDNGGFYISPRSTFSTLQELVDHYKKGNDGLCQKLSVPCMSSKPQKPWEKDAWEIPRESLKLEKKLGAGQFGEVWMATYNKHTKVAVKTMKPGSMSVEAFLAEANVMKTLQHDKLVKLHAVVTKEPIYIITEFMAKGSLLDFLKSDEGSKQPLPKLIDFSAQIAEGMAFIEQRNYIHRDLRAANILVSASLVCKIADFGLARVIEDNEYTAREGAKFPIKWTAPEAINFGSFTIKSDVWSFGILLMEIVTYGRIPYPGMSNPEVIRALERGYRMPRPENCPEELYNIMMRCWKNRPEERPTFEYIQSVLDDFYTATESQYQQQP

## C[C@H]1CN([C@H]2CC[C@H](c3nc(-c4ccc(Oc5ccccc5)cc4F)c4c(N)ncnn43)CC2)CCN1 [Example 165, 5-(2-fluoro-4-phenoxyphenyl)-7-((trans)-4-((S)-3-methylpiperazin-1-yl)cyclohexyl)imidazo[5,1-f][1,2,4]triazin-4-amine]
[1]; 50 μM ATP, read-out: HCK IC50
  pIC50: 8.30
[1]; [4]
  pIC50: > 7.30
[2]
  t1/2 in dog LM compared with the compound of example 1: higher t1/2
  half-life at 1 μM: 2.78 h

## C[C@H]1CN([C@H]2CC[C@H](n3nc(-c4ccc(Oc5ccccc5)cc4)c4c(N)ncnc43)CC2)CCN1 [Example 21, 1-((trans)-4-((S)-3-methylpiperazin-1-yl)cyclohexyl)-3-(4-phenoxyphenyl)-1H-pyrazolo[3,4-d] pyrimidin-4-amine]
[1]; 50 μM ATP, read-out: HCK IC50
  pIC50: 7.37
[1]; [4]
  pIC50: > 7.30
[2]
  t1/2 in dog LM compared with the compound of example 1: higher t1/2
  half-life at 1 μM: 2.13 h

## CN1CCN([C@H]2CC[C@H](n3cc(-c4ccc(Oc5ccccc5)cc4)c4c(N)ncnc43)CC2)CC1 [Example 1, 7-((trans)-4-(4-methylpiperazin-1-yl)cyclohexyl)-5-(4-phenoxyphenyl)-7H-pyrrolo[2,3-d]pyrimidin-4-amine]
[1]
  pIC50: > 7.30
[1]; 50 μM ATP, read-out: HCK IC50
  pIC50: 8.48
[2]
  half-life at 1 μM: 0.183 h
[3]
  Dog BAV: 0 % F

## CN1CCN([C@H]2CC[C@H](c3nc(-c4ccc(Oc5ccccc5)cc4F)c4c(N)ncnn43)CC2)CC1 [Example 163, 5-(2-fluoro-4-phenoxyphenyl)-7-((trans)-4-(4-methylpiperazin-1-yl)cyclohexyl)imidazo[5,1-f][1,2,4]triazin-4-amine]
[1]; 50 μM ATP, read-out: HCK IC50
  pIC50: 8.96
[1]; [4]
  pIC50: > 7.30
[2]
  t1/2 in dog LM compared with the compound of example 1: higher t1/2
  half-life at 1 μM: 1.8 h
[3]
  bioavailability in vivo: higher bioavailability
  plasma clearance in vivo: lower plasma clearance
  Dog BAV: 51 % F

## CN1CCN([C@H]2CC[C@H](n3nc(-c4ccc(Oc5ccccc5)cc4F)c4c(N)ncnc43)CC2)CC1 [Example 103, 3-(2-Fluoro-4-phenoxyphenyl)-1-((trans)-4-(4-methylpiperazin-1-yl)cyclohexyl)-1H-pyrazolo [3,4-d] pyrimidin-4-amine]
[1]; 50 μM ATP, read-out: HCK IC50
  pIC50: 8.39
[1]; [4]
  pIC50: > 7.30
[2]
  t1/2 in dog LM compared with the compound of example 1: higher t1/2
  half-life at 1 μM: 0.967 h
[3]
  bioavailability in vivo: higher bioavailability
  plasma clearance in vivo: lower plasma clearance
  Dog BAV: 24 % F

## C[C@H]1CN([C@H]2CC[C@H](n3cc(-c4ccc(Oc5ccccc5)cc4)c4c(N)ncnc43)CC2)CCN1 [Example 19, 7-((trans)-4-((S)-3-methylpiperazin-1-yl)cyclohexyl)-5-(4-phenoxyphenyl)-7H-pyrrolo[2,3-d]pyrimidin-4-amine]
[1]; 50 μM ATP, read-out: HCK IC50
  pIC50: 7.77
[1]; [4]
  pIC50: > 7.30
[2]
  t1/2 in dog LM compared with the compound of example 1: higher t1/2
  half-life at 1 μM: 1.4 h

## C[C@H]1CN([C@H]2CC[C@H](n3nc(-c4ccc(Oc5ccccc5)cc4F)c4c(N)ncnc43)CC2)CCN1 [Example 127, 3-(2-fluoro-4-phenoxyphenyl)-1-((trans)-4-((S)-3-methylpiperazin-1-yl)cyclohexyl)-1H-pyrazolo[3,4-d]pyrimidin-4-amine]
[1]; 50 μM ATP, read-out: HCK IC50
  pIC50: 8.29
[1]; [4]
  pIC50: > 7.30
[1]; example 127 versus example 21 and versus example 17
  HCK potency relative to a comparator compound: nearly an order of magnitude higher potency; also recorded: nearly three times greater potency
[2]
  t1/2 in dog LM compared with the compound of example 1: higher t1/2
  half-life at 1 μM: 1.97 h
[3]
  bioavailability in vivo: higher bioavailability
  plasma clearance in vivo: lower plasma clearance
  Dog BAV: 57 % F

## CC(C)N1CCC(N2CCC(n3nc(-c4ccc(Oc5ccccc5)cc4F)c4c(N)ncnc43)CC2)CC1 [Example 153, 3-(2-fluoro-4-phenoxyphenyl)-1-(1′-isopropyl-[1,4′-bipiperidin]-4-yl)-1H-pyrazolo[3,4-d]pyrimidin-4-amine]
[1]; [4]
  pIC50: > 7.30

## Nc1ncnc2c1c(-c1ccc(Oc3ccccc3)cc1)cn2C1CCC2(CC1)NC(=O)N(c1ccncc1)C2=O (centres unmarked) [Example 93, 8-(4-Amino-5-(4-phenoxyphenyl)-7H-pyrrolo[2,3-d]pyrimidin-7-yl)-3-(pyridin-4-yl)-1,3-diazaspiro [4.5] decane-2,4-dione]
[1]; [4]
  pIC50: 6.60 to 7.30

## [2H]c1c([2H])c([2H])c(Oc2ccc(-c3cn([C@H]4CC[C@H](N5CCN(C)CC5)CC4)c4ncnc(N)c34)cc2)c([2H])c1[2H] (single isomer, unassigned) [Example 104, 7-((trans)-4-(4-methylpiperazin-1-yl)cyclohexyl)-5-(4-pentadeuteriophenoxyphenyl)-7H-pyrrolo[2,3-d]pyrimidin-4-amine]
[1]
  pIC50: > 7.30
